# Results from patent US20050014700A1, “Cbi analogues of cc-1065 and the duocarmycins” (priority 2001, published 2005).
# Read-outs that look alike come from different tables or passages of the source.
# What was measured:
# [1] = system: w794 duplex DNA (SV40 nucleosomal DNA insert in M13mp10); experiment: DNA alkylation efficiency and selectivity, thermally-induced strand cleavage of 5′ end-labeled duplex DNA (PAGE); type: biochemical; conditions: for concentration at which DNA alkylation is detectable: 25° C., 24 hours
# From the text: The DNA alkylation properties of the compounds including those of CBI-X9-Y9 (24), CBI-X11-Y9 (25) and CBI-X10-Y10 (26) (FIG. 7) were examined within a 150 base-pair segment of duplex DNA and compared with (+)-duocarmycin SA (2), (+)-CBI-CDPI2 (27) and (+)-CBI-indole2 (28). One clone of phage M13mp10 was selected for the study that contained the SV40 nucleosomal DNA insert w794 (nucleotide no. 5238-138) (Ambrose, C., et al., J. Mol. Biol. 1989, 210, 255). The alkylation site identification and the assessment of the relative selectivity among the available sites was obtained by thermally-induced strand cleavage of the singly 5′ end-labeled duplex DNA after exposure to the agents. After treatment of the end-labeled duplex DNA with a range of agent concentrations, the unbound agent was removed by EtOH precipitation of the DNA. Redissolution of the DNA in aqueous buffer, thermolysis (100° C., 30 min) to induce strand cleavage at the sites of DNA alkylation, denaturing high resolution polyacrylamide gel electrophoresis (PAGE) adjacent to Sanger dideoxynucleotide sequencing standards, and autoradiography led to identification of the DNA cleavage and alkylation sites (Boger, D. L., et al., Tetrahedron 1991, 47, 2661).
# The preparation of singly ^32P 5′ end-labeled double-stranded DNA, the agent binding studies, gel electrophoresis, and autoradiography were conducted according to procedures described in full detail elsewhere.^28 Eppendorf tubes containing the 5′ end-labeled DNA (9 μL) in TE buffer (10 mM Tris, 1 mM EDTA, pH 7.5) were treated with the agent in DMSO (1 μL at the specified concentration). The solution was mixed by vortexing and brief centrifugation and subsequently incubated at 25° C. for 24 hours. The covalently modified DNA was separated from the unbound agent by EtOH precipitation and resuspended in TE buffer (10 μL). The solution of DNA in an Eppendorf tube sealed with Parafilm was warmed at 100° C. for 30 min to introduce cleavage at the alkylation sites, allowed to cool to 25° C., and centrifuged. Formamide dye (0.03% xylene cyanol FF, 0.03% bromophenol blue, 8.7% Na2EDTA 250 mM) was added (5 μL) to the supernatant. Prior to electrophoresis, the sample was denatured by warming at 100° C. for 5 min, placed in an ice bath, and centrifuged, and the supernatant (3 μL) was loaded directly onto the gel. Sanger dideoxynucleotide sequencing reactions were run as standards adjacent to the reaction samples. Polyacrylamide gel electrophoresis (PAGE) was run on an 8% sequencing gel under denaturing conditions (8 M urea) in TBE buffer (100 mM Tris, 100 mM boric acid, 0.2 mM Na2EDTA) followed by autoradiography.
# L1210 [2] = conditions: previous study; additional heteroatom in carboxylate bearing aromatic ring; cited from earlier work
# [3] = system: w794 duplex DNA (SV40 nucleosomal DNA insert in M13mp10); conditions: cited from earlier work; for DNA alkylation efficiency compared to parent (+)-CBI-CDPI (21) / DNA alkylation selectivity compared to parent (+)-CBI-CDPI (21): previous study
# L1210 [4] = experiment: cellular functional assay for L1210 cytotoxic activity; type: cell-based
# Method: For comparison, the L1210 IC50 for (+)-N-Boc-CBI, which lacks an attached DNA binding domain, is 80 nM (80,000 pM).
molecule,measurement,setting,value
"NC(=O)N1CCc2c1ccc1[nH]c(C(=O)N3CCc4c3ccc3[nH]c(C(=O)N5C[C@H]6C[C@@]67C5=CC(=O)c5ccccc57)cc43)cc21 [compound 27, (+)-CBI-CDPI2]",alkylation of the minor 5′-ACTAA-3′ site,[1]; w794 DNA,neither 27 or 28 alkylate the minor 5′-ACTAA-3′ site to a significant extent
(+)-CBI-CDPBO,decrease in cytotoxic activity relative to (+)-CBI-CDPI (21),L1210 [2],40 fold
same,DNA alkylation efficiency compared to parent (+)-CBI-CDPI (21),[3],analogous decrease in the DNA alkylation efficiency
same,DNA alkylation selectivity compared to parent (+)-CBI-CDPI (21),[3],no alteration in the alkylation selectivity
"1-(Chloromethyl)-5-hydroxy-3-{[3-[4-(tert-Butoxycarbonylamino)-1-methylpyrrol-2-yl)-carbonyl]-1,2-dihydro(3H-pyrrolo[3,2-e]indol)-7-yl)carbonyl}-1,2-dihydrobenzo[e]indole [X11-Y10]",IC50,L1210 [4],5 pM
"CC(C)(C)OC(=O)Nc1ccc2[nH]c(C(=O)N3CCc4c3ccc3[nH]c(C(=O)N5CC(CCl)c6c5cc(O)c5ccccc65)cc43)cc2c1 (centres unmarked) [X11-Y14, 1-(Chloromethyl)-5-hydroxy-3-{[3-[5-(tert-Butoxycarbonylaminoindole-2-yl)carbonyl]-1,2-dihydro(3H-pyrrolo[3,2-e]indol)-7-yl)carbonyl}-1,2-dihydrobenzo [e]indole]",IC50,L1210 [4],7 pM
Cn1cc(NC(=O)OC(C)(C)C)nc1C(=O)Nc1cn(C)c(C(=O)N2CC(CCl)c3c2cc(O)c2ccccc32)n1 (centres unmarked) [compound 24],concentration at which DNA alkylation is detectable,[1]; w794 DNA,> 10^−3 M
"1-(Chloromethyl)-5-hydroxy-3-{[4-[4-(tert-Butoxycarbonylamino)-1-methylpyrrol-2-yl)carbonyl]amino-1-methylpyrrol-2-yl]carbonyl}-1,2-dihydrobenzo[e]indole [X10-Y10]",DNA alkylation effectiveness relative to N-Boc-CBI,[1]; comparable reaction conditions,10-100 fold
same,lower DNA alkylation efficiency compared to 25,[1]; w794 DNA,100-1000 fold
same,concentration at which DNA alkylation is detectable,[1]; w794 DNA,10^−3 M
same,IC50,L1210 [4],440 pM
(+)-CBI-indole2 [compound 28],alkylation of the minor 5′-ACTAA-3′ site,[1]; w794 DNA,neither 27 or 28 alkylate the minor 5′-ACTAA-3′ site to a significant extent
"1-(Chloromethyl)-5-hydroxy-3-{[3-[2-(tert-Butoxycarbonylamino-1,3-thiazol-4-yl) carbonyl]-1,2-dihydro(3H-pyrrolo[3,2-e]indol)-7-yl)carbonyl}-1,2-dihydrobenzo[e]indole [X11-Y7]",IC50,L1210 [4],5 pM
(+)-CBI-CDPI [compound 21],alkylation of the minor 5′-ACTAA-3′ site,"[3]; w794 DNA, prior study",does
CC(C)(C)OC(=O)N1CCc2c1ccc1[nH]c(C(=O)N3CCc4c3ccc3[nH]c(C(=O)N5CC(CCl)c6c5cc(O)c5ccccc65)cc43)cc21 (centres unmarked) [X11-Y11],IC50,L1210 [4],5 pM
(+)-CBI-CDPBI,decrease in cytotoxic activity relative to (+)-CBI-CDPI (21),L1210 [2],40 fold
same,DNA alkylation efficiency compared to parent (+)-CBI-CDPI (21),[3],analogous decrease in the DNA alkylation efficiency
same,DNA alkylation selectivity compared to parent (+)-CBI-CDPI (21),[3],no alteration in the alkylation selectivity
"CC(C)(C)OC(=O)N1CC2CC23C1=CC(=O)c1ccccc13 (single isomer, unassigned; (+)) [(+)-N-Boc-CBI]",IC50,L1210 [4],80000 pM
"1-(Chloromethyl)-5-hydroxy-3-{[4-[4-(tert-Butoxycarbonylaminothiophen-2-yl)carbonyl]aminothiophen-2-yl]carbonyl}-1,2-dihydrobenzo[e]indole [X8-Y8]",IC50,L1210 [4],290 pM
